Results taken from ChEMBL document CHEMBL3045033, “Synthesis of new potential anticancer agents based on 4-thiazolidinone and oleanane scaffolds” (Med Chem Res, 2012).

Experiments:
MCF7 = assay: Cytotoxicity against Homo sapiens (human) MCF7 cells assessed as cellular growth at 10^-5 M after 48 hr by SRB assay relative to untreated control; format: functional
A549 = assay: Cytotoxicity against Homo sapiens (human) A549 cells assessed as cellular growth at 10^-5 M after 48 hr by SRB assay relative to untreated control; format: functional
HCC 2998 = assay: Cytotoxicity against Homo sapiens (human) HCC2998 cells after 48 hr by SRB assay; format: functional; details: HCC 2998, 48 h
KM12 = assay: Cytotoxicity against Homo sapiens (human) KM12 cells after 48 hr by SRB assay; format: functional; details: KM12, 48 h
SN12C = assay: Cytotoxicity against Homo sapiens (human) SN12C cells after 48 hr by SRB assay; format: functional
HOP-92 = assay: Cytotoxicity against Homo sapiens (human) HOP92 cells after 48 hr by SRB assay; format: functional; details: HOP-92, 48 h
MOLT-4 = assay: Cytotoxicity against Homo sapiens (human) MOLT4 cells after 48 hr by SRB assay; format: functional; details: MOLT-4, 48 h
HCT-116 = assay: Cytotoxicity against Homo sapiens (human) HCT116 cells assessed as cellular growth at 10^-5 M after 48 hr by SRB assay relative to untreated control; format: functional
NCI-H522 [1] = assay: Cytotoxicity against Homo sapiens (human) NCI-H522 cells assessed as cellular growth at 10^-5 M after 48 hr by SRB assay relative to untreated control; format: functional
OVCAR-8 = assay: Cytotoxicity against Homo sapiens (human) OVCAR8 cells assessed as cellular growth at 10^-5 M after 48 hr by SRB assay relative to untreated control; format: functional
UACC-62 = assay: Cytotoxicity against Homo sapiens (human) UACC62 cells after 48 hr by SRB assay; format: functional; details: UACC-62, 48 h
NCI-H522 [2] = assay: Cytotoxicity against Homo sapiens (human) NCI-H522 cells after 48 hr by SRB assay; format: functional; details: NCI-H522, 48 h; for CC50: read-out: pLC50 (the source's name) (converted)
U-251 = assay: Cytotoxicity against Homo sapiens (human) U251 cells assessed as cellular growth at 10^-5 M after 48 hr by SRB assay relative to untreated control; format: functional
NCI-H460 = assay: Cytotoxicity against Homo sapiens (human) NCI-H460 cells assessed as cellular growth at 10^-5 M after 48 hr by SRB assay relative to untreated control; format: functional
A498 = assay: Cytotoxicity against Homo sapiens (human) A498 cells assessed as cellular growth at 10^-5 M after 48 hr by SRB assay relative to untreated control; format: functional
TK-10 = assay: Cytotoxicity against Homo sapiens (human) TK10 cells assessed as cellular growth at 10^-5 M after 48 hr by SRB assay relative to untreated control; format: functional
Hs-578T = assay: Cytotoxicity against Homo sapiens (human) Hs578T cells assessed as cellular growth at 10^-5 M after 48 hr by SRB assay relative to untreated control; format: functional
MDA-MB-468 [3] = assay: Cytotoxicity against Homo sapiens (human) MDA-MB-468 cells after 48 hr by SRB assay; format: functional; details: MDA-MB-468, 48 h, read-out: pLC50 (the source's name) (converted)
SF-295 = assay: Cytotoxicity against Homo sapiens (human) SF295 cells assessed as cellular growth at 10^-5 M after 48 hr by SRB assay relative to untreated control; format: functional
CCRF-CEM = assay: Cytotoxicity against Homo sapiens (human) CCRF-CEM cells assessed as cellular growth at 10^-5 M after 48 hr by SRB assay relative to untreated control; format: functional
HL-60(TB) = assay: Cytotoxicity against Homo sapiens (human) HL-60(TB) cells assessed as cellular growth at 10^-5 M after 48 hr by SRB assay relative to untreated control; format: functional
T47D = assay: Cytotoxicity against Homo sapiens (human) T47D cells assessed as cellular growth at 10^-5 M after 48 hr by SRB assay relative to untreated control; format: functional
MDA-MB-468 [4] = assay: Cytotoxicity against Homo sapiens (human) MDA-MB-468 cells at 10^-4 to 10^-8 M after 48 hr by SRB assay; format: functional; details: MDA-MB-468, 48 h, read-out: pTGI (converted)
[5] = Toxicity in mouse; format: organism-based; details: in vivo

With `COC(=O)[C@]12CCC(C)(C)C[C@H]1C1=CC[C@@H]3[C@@]4(C)CC/C(=N\O)C(C)(C)[C@@H]4CC[C@@]3(C)[C@]1(C)CC2` the Activity (MCF7) was 26.08%, the Activity (A549) was -41.06% and the GI50 (HCC 2998) was 22.9 µM. It also gave a GI50 (KM12) of 38.9 µM, a GI50 (SN12C) of 20.9 µM and a GI50 (HOP-92) of 19.1 µM. It also gave a GI50 (MOLT-4) of 37.2 µM, an Activity (HCT-116) of 3.39% and an Activity (NCI-H522 [1]) of 23.74%. For the same compound, the Activity (OVCAR-8) was 11.3%, the GI50 (UACC-62) was 22.4 µM and the GI50 (NCI-H522 [2]) was 26.3 µM. The CC50 (NCI-H522 [2]) was over 100 µM, the Activity (U-251) was 33.89% and the Activity (NCI-H460) was 44.14%.

With `CC1(C)CC[C@@]23CC[C@]4(C)[C@@](OC2=O)([C@@H]3C1)[C@@H](Br)C[C@@H]1[C@@]2(C)CC/C(=N\O)C(C)(C)[C@@H]2CC[C@]14C` the Activity (A498) was 150.51%, the GI50 (HCC 2998) was 81.3 µM and the GI50 (KM12) was 8.91 µM. The Activity (TK-10) was 31.05%, the Activity (Hs-578T) was 258.88% and the GI50 (SN12C) was 37.2 µM. The GI50 (HOP-92) was 4.37 µM, the GI50 (MOLT-4) was 14.1 µM and the CC50 (MDA-MB-468 [3]) was over 100 µM. It also gave an Activity (SF-295) of 19.14%, a GI50 (UACC-62) of 18.6 µM and a CC50 (NCI-H522 [2]) of over 100 µM.

Compound `COC(=O)[C@]12CCC(C)(C)C[C@H]1C1=CC[C@@H]3[C@@]4(C)CC/C(=N\OC(=O)/C=C5/SC(=O)NC5=O)C(C)(C)[C@@H]4CC[C@@]3(C)[C@]1(C)CC2` has an Activity (CCRF-CEM) of -24.8%, an Activity (HL-60(TB)) of -46.91% and an Activity (T47D) of 9.18%. It also gave a TGI (MDA-MB-468 [4]) of 6.61 µM and an MTD [5] of over 400 mg/kg.
